Data from patent publication US9433686B2, “Methods for treating castration resistant prostate cancer and metastasis by reducing B-cell number and/or function” (The Regents of the University of California, priority 2011, dated 2016).

What was measured:
[1] = tested on: STAT3; assay: STAT3 phosphorylation in myc-CaP tumors after castration (immunohistochemistry); format: in vivo, FVB mice; details: phospho-STAT3 staining
Source text: FIG. 14. STAT3 activation and its role in CR-CaP emergence. A,B WT+Ikkβ^F/F and WT+Ikkβ^Δ/Δ radiation chimeras (n=10 each group) bearing myc-CaP allografts were established as above and injected with poly(IC) to delete IKKβ[…] in BMDC before castration or sham operation. After one month, mice were sacrificed for analysis. A. Lymphocytes were isolated from indicated tissues and analyzed for IKKβ expression. B. Tumor samples were immunoblotted to determine expression and phosphorylation of indicated signaling proteins. C,D FVB mice bearing myc-CaP tumors were castrated. Starting one day before castration, the mice (n=10 per group) were injected twice daily with vehicle or AG490, an inhibitor of STAT3 phosphorylation. C. One week after castration, tumors were collected, paraffin-embedded, sectioned and stained with phospho-STAT3 antibody. D. Tumor volume was measured every 2-3 days as above. Results are averages±s.e.m. P values were determined and are indicated as above.
FIG. 23. LTβ is required for IKKα nuclear localization and STAT3 phosphorylation. Mice carrying Myc-CaP tumors were castrated and treated with vehicle or LTβR-Ig as described above. Paraffin-embedded sections were analyzed for IKKα nuclear localization and STAT3 phosphorylation.
Mouse prostate and CaP tissues and dissected metastatic tumors were immersed in 10% neutral buffered formalin before sectioning and paraffin embedding. […]

[2] = tested on: IKK; assay: IκBα phosphorylation in PMA-stimulated Myc-CaP cells; format: cell-based, mouse; details: 1 hr pre-treatment, AG490 100 μM, PMA 10 ng/ml 10 min
Experimental: (§1) FIG. 15. Selectivity of IKKβ and STAT3 phosphorylation inhibitors. A. Myc-CaP cells were cultured to 60% confluency and pre-treated for 1 hr with AG490 (100 μM) or ML120B (20 μM), followed by stimulation with PMA (10 ng/ml) for 10 min. Cells were collected and IκBα phosphorylation was analyzed. B. Myc-CaP cells were pre-treated with AG490 or ML120B and after 1 hr, were stimulated with IL-6 (20 ng/ml) for 30 min. Cells were collected and STAT3 phosphorylation was analyzed by immunoblotting.
(§2) Total tissue RNA was prepared using RNAeasy (Qiagen). Quantitative PCR was performed as described^38. Cells and tumors were lysed and analyzed by SDS-polyacrylamide gel electrophoresis and immunoblotting^38 with antibodies to histone H3, α-tubulin, STAT3 (Santa Cruz Biotechnology), ERK, phospho-ERK, AKT, phospho-AKT, phospho-STAT3 (Cell Signaling). Nuclear extracts were prepared and analyzed for NF-κB DNA-binding as described^39.

[3] = tested on: myc-CaP tumors; assay: CR-CaP re-growth (tumor volume) of s.c. myc-CaP allografts after castration; format: in vivo, FVB mice; details: castrated mice bearing s.c. myc-CaP tumors
Experimental: FIG. 4. IKKβ-dependent lymphotoxin production by tumor-infiltrating B cells stimulates IKKα-dependent androgen-free survival. A. RNA from splenic B cells of Ikkβ^F/F and Ikkβ^Δ/Δ mice was analyzed for LTα and LTβ expression as above. Results are averages±s.d. (n=3). B. Lethally irradiated FVB males were reconstituted with BM from B-Ltβ^−/− or T-Ltβ^−/− mice (n=6 per group). After 8 weeks, myc-CaP tumors were established, mice were castrated and tumor volume was measured as above. Results are averages±s.e.m. C. FVB mice (n=6 each group) bearing myc-CaP tumors were castrated and given hIgG or LTβR-Ig (100 μg) every 5 days, starting 4 days before castration. Tumor volume was measured as above. Results are averages±s.e.m. […] Mice were castrated and tumor volume was measured. […] After 6 hrs, the cells were cultured with or without flutamide (10 μM) in the absence or presence of LTα2β1, and cell number was determined. […] After 12 hrs, cells were stimulated for 1 hr with LTα2β1, collected, divided into cytosolic (C) and nuclear (N) fractions and IKKα and histone H3 distribution was determined. In A, B, C, D and E, P values were determined and are indicated as above.
FIG. 8. […] Five months later, mice were sacrificed and prostate tumor weight and incidence of lymph node, lung and liver metastases were determined. […] Tumor volume in above mice was measured every 2-3 days. […] Tumor volume was measured as above. […]

[4] = tested on: STAT3; assay: STAT3 phosphorylation in IL-6-stimulated Myc-CaP cells (immunoblotting); format: cell-based, mouse; details: 1 hr pre-treatment, IL-6 20 ng/ml 30 min
Experimental: as §1, §2

| Compound | STAT3 activation (phosphorylation) in CaP cells of tumors [1] | IKK activation (IκBα phosphorylation) [2] | CR-CaP growth / appearance after castration (tumor volume) [3] | STAT3 activation (phosphorylation) [4] |
| --- | --- | --- | --- | --- |
| N#C/C(=C/c1ccc(O)c(O)c1)C(=O)NCc1ccccc1 [A490] | inhibitable | did not inhibit | delayed | – |
| COc1c(Cl)cc2c([nH]c3cnccc32)c1NC(=O)c1cccnc1C [ML120B, N-(6-chloro-7-methoxy-9H-β-carbolin-8-yl)-2-methylnicotinamide] | – | – | – | did not inhibit |
